Values joined by “and” are separate entries in the source; they are usually repeats but may differ in a detail not shown here. Identical values can stand only once. Starred links: 1 amine or outer side, 2 acyl side, 3 side chain; linkers in the order of their positions; H or OH if unused. Positions of bridges follow the written chain, without caps; N, C: chain ends. Non-standard residues stand in square brackets, D forms with d. Residues, ends and D or L forms follow the SMILES beside them. *: point of attachment. X1 = CC[C@H](C)[C@@H](N[*:1])[C@@H](O)CC(=O)O[C@H](C(=O)[C@H](C)C(=O)[*:2])C(C)C; NMeY = CN[C@@H](Cc1ccc(O)cc1)C(=O)O; dNMeL = CN[C@H](CC(C)C)C(=O)O; Pyruvoyl = CC(=O)C(=O)*
Assays:
SARS-CoV = format: cell-based; details: Vero E6 cells; 50 nM; 48 hpi
SARS-CoV-2 [1] = system: SARS-CoV-2; design: method as in PMID 33495306; details: in vivo; cited from earlier work
[2] = system: SARS-CoV-2 (βCoV/KOR/KCDC03/2020); assay: microbe, parasite or virus in culture; format: cell-based; details: Severe acute respiratory syndrome coronavirus 2, Vero
HCoV-229E-GFP virus = assay: microbe, parasite or virus in culture; format: cell-based, human coronavirus 229E; details: Huh-7 cells
SARS-CoV-2 [3] = assay: APLICOV-PC: SARS-CoV-2 viral load by qRT-PCR of nasopharyngeal samples; format: in vivo, human; details: for mean viral load decline from baseline: all doses; for log10 viral load: individual patients, ND = not detected
Method: Secondary outcomes included change from baseline of viral load, as evaluated by quantitative PCR via central laboratory on nasopharyngeal exudate or sampled from the lower respiratory tract within 48 h before first administration of plitidepsin and on days 4, 7, 15, and 31, and the percentage of patients requiring oxygen therapy, noninvasive mechanical ventilation, invasive mechanical ventilation and/or intensive care unit admission, and the percentage of patients with a fatal outcome on days 7, 15, and 31.
Centralized assessments of nasopharyngeal samples were performed at SYNLAB. Viral RNA extraction from the samples was performed using the Maxwell HT Viral TNA (AX2340) Promega, on the Hamilton automated extraction platform. Detection of nCoV2019 was carried out with the kit: TaqPath TM COVID-19 RT-PCR KIT (A48102) Thermo Fisher Scientific. The positivity/negativity criteria used for the interpretation of the results are defined in Table S7.
Each sample was analyzed in triplicate, and the cycle threshold (CT) value obtained was extrapolated to the standard curve, so that a value of viral load is obtained per reaction for said sample. The quantification, in triplicate, of the viral load of the patient sample was carried out at each of the five time points.
For quantification, in each sample plate, eight points, in triplicate (24 PCR in total), of the plasmid IDT 2019 nCov Kit CDC EUA of known viral load was used to generate the standard line on which to extrapolate the results of the samples of the trial patients. The sensitivity of the analytical method is 10 mRNA copies/run. Assuming a starting sample volume of 200 μl, from which 100 μl of mRNA can be obtained, and that a single PCR run requires 5 μl mRNA, it can be estimated that the sensitivity for 100% of the replicates is 1,000 mRNA copies/ml (3 log10). For mathematical analysis and graphical visualization, an intermediate value of 1.5 log10 has been imputed to samples with undetected SARS-CoV-2 mRNA.

Question: Which “decrease in SARS-CoV genomic RNA accumulation” value (SARS-CoV) does the source give for `CC[C@H](C)[C@H]1NC(=O)[C@@H](NC(=O)[C@@H](CC(C)C)N(C)C(=O)[C@@H]2CCCN2C(=O)C(C)=O)[C@@H](C)OC(=O)[C@H](Cc2ccc(OC)cc2)N(C)C(=O)[C@@H]2CCCN2C(=O)[C@H](CC(C)C)NC(=O)[C@@H](C)C(=O)[C@H](C(C)C)OC(=O)C[C@@H]1O` [Plitidepsin] (Pyruvoyl-P[dNMeL]T[X1]LP[NMeY](Me); ester 3-C) here?
Answer: 10^4 fold

Question: What about the “viral load in lungs” value (SARS-CoV-2 [1]) of the same compound?
Answer: significant reduction in the viral load in lungs

Question: And the IC50 ([2]; Boryung Pharmaceuticals)?
Answer: 3.26 nM

Question: What about the IC90 ([2]; estimated from IC50 and Hill slope) of the same compound?
Answer: 9.38 nM

Question: What about the “concentration of plitidepsin with antiviral effect on HCoV-229E-GFP” value (HCoV-229E-GFP virus; as low as, equals 0.5 nM) of the same compound?
Answer: ≤ 0.555 µg/L

Question: And the IC50 (HCoV-229E-GFP virus; Human coronavirus 229E, study protocol, read-out: IC50 assumed from the HCoV-229E-GFP experiment)?
Answer: 0.5 nM and 0.000555 µg/mL

Question: What about the “Mean time from baseline until undetectable viral load” value (SARS-CoV-2 [3]; 1.5 mg) of the same compound?
Answer: 11 days

Question: What about the “Mean time from baseline until undetectable viral load” value (SARS-CoV-2 [3]; 2.0 mg) of the same compound?
Answer: 14 days

Question: What about the “Mean time from baseline until undetectable viral load” value (SARS-CoV-2 [3]; 2.5 mg) of the same compound?
Answer: 14 days

Question: And the “Mean change in viral load from baseline to” value (“Mean change in viral load” for short) (SARS-CoV-2 [3]; Day 4, 1.5 mg)?
Answer: −1.23 log10 copies/ml

Question: What about the “Mean change in viral load” value (SARS-CoV-2 [3]; Day 4, 2.0 mg) of the same compound?
Answer: −1.49 log10 copies/ml

Question: What about the “Mean change in viral load” value (SARS-CoV-2 [3]; Day 4, 2.5 mg) of the same compound?
Answer: −1.32 log10 copies/ml

Question: What about the “Mean change in viral load” value (SARS-CoV-2 [3]; Day 4, Total) of the same compound?
Answer: −1.35 log10 copies/ml

Question: And the “Mean change in viral load” value (SARS-CoV-2 [3]; Day 7, 1.5 mg)?
Answer: −2.55 log10 copies/ml

Question: And the “Mean change in viral load” value (SARS-CoV-2 [3]; Day 7, 2.0 mg)?
Answer: −2.26 log10 copies/ml

Question: What about the “Mean change in viral load” value (SARS-CoV-2 [3]; Day 7, 2.5 mg) of the same compound?
Answer: −2.25 log10 copies/ml

Question: What about the “Mean change in viral load” value (SARS-CoV-2 [3]; Day 7, Total) of the same compound?
Answer: −2.35 log10 copies/ml

Question: What about the “Mean change in viral load” value (SARS-CoV-2 [3]; Day 15, 1.5 mg) of the same compound?
Answer: −4.22 log10 copies/ml

Question: What about the “Mean change in viral load” value (SARS-CoV-2 [3]; Day 15, 2.0 mg) of the same compound?
Answer: −2.70 log10 copies/ml

Question: What about the “Mean change in viral load” value (SARS-CoV-2 [3]; Day 15, 2.5 mg) of the same compound?
Answer: −2.92 log10 copies/ml

Question: What about the “Mean change in viral load” value (SARS-CoV-2 [3]; Day 15, Total) of the same compound?
Answer: −3.25 log10 copies/ml

Question: What about the “Mean change in viral load” value (SARS-CoV-2 [3]; Day 31, 1.5 mg) of the same compound?
Answer: −4.70 log10 copies/ml

Question: And the “Mean change in viral load” value (SARS-CoV-2 [3]; Day 31, 2.0 mg)?
Answer: −3.53 log10 copies/ml

Question: And the “Mean change in viral load” value (SARS-CoV-2 [3]; Day 31, 2.5 mg)?
Answer: −3.49 log10 copies/ml

Question: What about the “Mean change in viral load” value (SARS-CoV-2 [3]; Day 31, Total) of the same compound?
Answer: −3.85 log10 copies/ml

Question: And the “Mean time from baseline until undetectable viral load” value (SARS-CoV-2 [3]; Total)?
Answer: 13 days

Question: What about the “mean viral load decline from baseline” value (SARS-CoV-2 [3]; day 4) of the same compound?
Answer: 1.35 log10 copies/ml

Question: And the “mean viral load decline from baseline” value (SARS-CoV-2 [3]; day 7)?
Answer: 2.35 log10 copies/ml

Question: And the “mean viral load decline from baseline” value (SARS-CoV-2 [3]; day 15)?
Answer: 3.25 log10 copies/ml

Question: What about the “mean viral load decline from baseline” value (SARS-CoV-2 [3]; day 31) of the same compound?
Answer: 3.85 log10 copies/ml

Question: And the log10 viral load (SARS-CoV-2 [3]; 1.5 mg/d, Day 4)?
Answer: 5.14 copies/ mL and 3.25 copies/ mL and 8.4 copies/ mL and 9.54 copies/ mL and 6.54 copies/ mL and 3.61 copies/ mL and 7.39 copies/ mL and 4.02 copies/ mL and 6.56 copies/ mL and 5.76 copies/ mL

Question: And the log10 viral load (SARS-CoV-2 [3]; 1.5 mg/d, Day 7)?
Answer: 8.47 copies/ mL and 6.63 copies/ mL and 4.34 copies/ mL and 4.7 copies/ mL and 5.83 copies/ mL and 4.71 copies/ mL and 3.82 copies/ mL

Question: What about the log10 viral load (SARS-CoV-2 [3]; 1.5 mg/d, Day 15) of the same compound?
Answer: 6.05 copies/ mL and 7.46 copies/ mL

Question: What about the log10 viral load (SARS-CoV-2 [3]; 1.5 mg/d, Day 31) of the same compound?
Answer: 4.42 copies/ mL

Question: What about the log10 viral load (SARS-CoV-2 [3]; 2 mg/d, Day 4) of the same compound?
Answer: 7.95 copies/ mL and 4.46 copies/ mL and 5.3 copies/ mL and 6.17 copies/ mL and 4.53 copies/ mL and 4.47 copies/ mL and 5.34 copies/ mL and 5.99 copies/ mL and 5.69 copies/ mL and 5.5 copies/ mL

Question: And the log10 viral load (SARS-CoV-2 [3]; 2 mg/d, Day 7)?
Answer: 6.52 copies/ mL and 4.68 copies/ mL and 4.59 copies/ mL and 3.38 copies/ mL and 4.02 copies/ mL and 3.62 copies/ mL and 4.33 copies/ mL and 2.89 copies/ mL and 5.2 copies/ mL and 5.49 copies/ mL

Question: And the log10 viral load (SARS-CoV-2 [3]; 2 mg/d, Day 15)?
Answer: 8.14 copies/ mL and 5.52 copies/ mL and 5.22 copies/ mL and 4.43 copies/ mL and 4.92 copies/ mL

Question: And the log10 viral load (SARS-CoV-2 [3]; 2 mg/d, Day 31)?
Answer: 7.37 copies/ mL and 4.31 copies/ mL and 4.69 copies/ mL

Question: What about the log10 viral load (SARS-CoV-2 [3]; 2.5 mg/d, Day 4) of the same compound?
Answer: 4.3 copies/ mL and 5.45 copies/ mL and 4.37 copies/ mL and 4.77 copies/ mL and 5.57 copies/ mL and 6.26 copies/ mL and 8.67 copies/ mL and 9.84 copies/ mL and 3.79 copies/ mL and 9.25 copies/ mL

Question: What about the log10 viral load (SARS-CoV-2 [3]; 2.5 mg/d, Day 7) of the same compound?
Answer: 3.05 copies/ mL and 4.44 copies/ mL and 5.49 copies/ mL and 3.33 copies/ mL and 7.29 copies/ mL and 9.54 copies/ mL and 6.99 copies/ mL

Question: What about the log10 viral load (SARS-CoV-2 [3]; 2.5 mg/d, Day 15) of the same compound?
Answer: 3.8 copies/ mL and 5.66 copies/ mL and 5.92 copies/ mL and 8.33 copies/ mL

Question: What about the log10 viral load (SARS-CoV-2 [3]; 2.5 mg/d, Day 31) of the same compound?
Answer: 3.6 copies/ mL and 5.33 copies/ mL and 4.68 copies/ mL

Question: What about the “mean time to undetectable viral load” value (SARS-CoV-2 [3]; patients with mild or moderate disease at baseline) of the same compound?
Answer: 12 days

Question: And the “mean time to undetectable viral load” value (SARS-CoV-2 [3]; patients with severe disease at baseline)?
Answer: 15 days
